Measurements: ChEMBL document CHEMBL4340548, “Pyridone-containing phenalenone-based photosensitizer working both under light and in the dark for photodynamic therapy” (Bioorg Med Chem, 2019)
Active and inactive are the calls of the source. No cut-off for these calls is given here.

Assays:
[1] = Induction of singlet oxygen generation in acetonitrile irradiated with blue light assessed as singlet oxygen quantum yield at 30 uM using ABDA by UV spectrophotometry; format: functional
HeLa [2] = test: Photodynamic cytotoxicity in human HeLa cells assessed as reduction in cell viability incubated in blue light for 5 mins every 1.5 hrs for 8 repeated cycles further incubation under dark for 24 hrs by MTT assay; format: functional; conditions: light or radiation study
[3] = Induction of singlet oxygen generation in water irradiated with blue light assessed as singlet oxygen quantum yield at 30 uM using ABDA by UV spectrophotometry; format: functional
[4] = Photostability in acetonitrile assessed as decrease in absorbance of pyridone moiety at 50 uM irradiated with light for 2.5 hrs by UV spectrophotometry
HeLa [5] = test: Induction of ROS generation in human HeLa cells irradiated with blue light at 1 uM incubated for 30 mins by DCFH-DA dye-based confocal microscopic analysis; format: functional, cell-based
HeLa [6] = test: Induction of ROS generation in human HeLa cells under dark condition at 1 uM incubated for 30 mins at 37 degC by DCFH-DA dye-based confocal microscopic analysis; format: cell-based; conditions: 0.5 h
HeLa [7] = test: Induction of ROS generation in human HeLa cells irradiated with blue light at 1 uM incubated for 30 mins in presence of sodium azide by DCFH-DA dye-based confocal microscopic analysis; format: functional, cell-based
HeLa [8] = test: Induction of apoptosis in human HeLa cells at 1 uM incubated for 3 hrs irradiated with blue light by DAPI-Annexin V-PE staining based confocal microscopic analysis; format: functional, cell-based
HeLa [9] = test: Induction of apoptosis in human HeLa cells at 1 uM incubated for 3 hrs irradiated with blue light in presence of sodium azide by DAPI-Annexin V-PE staining based confocal microscopic analysis; format: functional, cell-based
[10] = Photostability in acetonitrile assessed as PPN-EPO formation at 50 uM irradiated with light for 2.5 hrs by UV spectrophotometry
[11] = Photostability in acetonitrile assessed as singlet oxygen formation by measuring pyridone moiety band at 50 uM at 37 degC irradiated with light for 2.5 hrs by UV spectrophotometry
[12] = Induction of singlet oxygen generation at 50 uM under irradiation incubated for 15 mins by 1H-NMR spectroscopy; format: functional
[13] = Induction of singlet oxygen generation at 50 uM under blue light irradiation at 60 degC by ABDA based singlet oxygen trap assay; format: functional
[14] = Induction of singlet oxygen generation at 50 uM under blue light irradiation at 25 degC by ABDA based singlet oxygen trap assay; format: functional
[15] = Induction of singlet oxygen generation at 50 uM under dark condition at 37 degC by ABDA based singlet oxygen trap assay; format: functional
[16] = Induction of singlet oxygen generation at 50 uM under irradiation at 20 degC for 5 mins and dark at 37 degC fro 30 mins for several cycles by ABDA based singlet oxygen trap assay; format: functional

Compound	Activity [1]	CC50 (HeLa [2])	Activity [3]	Stability [4]	Activity (HeLa [5])	Activity (HeLa [6])	Activity (HeLa [7])	Activity (HeLa [8])	Activity (HeLa [9])	Stability [10]	Stability [11]	Activity [12]	Activity [13]	Activity [14]	Activity [15]	Activity [16]
O=C1C(c2ccc(CN3C(=O)C4C=CC3OO4)cc2)=Cc2cccc3cccc1c23 (centres undefined)	0.71	71.5 nM	0.16													
O=C1C(c2ccc(Cn3ccccc3=O)cc2)=Cc2cccc3cccc1c23	0.64	26.5 nM	0.12	Unstable	Active	Non-Toxic	Active	Active	inactive	Unstable	Stable	Active	Active	inactive	Active	Active
